Values quoted from earlier work, collected in patent publication EP1027077B1, “MAGNETIC RESONANCE IMAGING AGENTS FOR THE DELIVERY OF THERAPEUTIC AGENTS” (Research Corporation Technologies, Inc, priority 1997, dated 1999).

Conditions: thermodynamic stability of the Gd(III) chelate; background statement

Question: With O=C([O-])CN(CCN(CC(=O)[O-])CC(=O)[O-])CCN(CC(=O)[O-])CC(=O)[O-].[Gd+3] [Gd(DTPA)^2-] as the compound, how does the “stability constant (K) / formation constant, logK” value read?
Answer: Its value is 22.4.

Question: With O=C([O-])CN1CCN(CC(=O)[O-])CCN(CC(=O)[O-])CCN(CC(=O)[O-])CC1.[Gd+3] [Gd-DOTA] as the compound, how does the “stability constant (K) / formation constant, logK” value read?
Answer: Its value is 28.5.
